Target: cruzipain (Trypanosoma cruzi, UniProt P25779)
Test: biochemical
Conditions: 50 pM cruzipain, pH 5.5, 15 minutes preincubation, 2 μM Z-Phe-Arg-AMC substrate
Method: The assay solutions were mixed and incubated for 15 minutes at room temperature prior to the addition of 2 μM of Z-Phe-Arg-AMC substrate. […] Percent of inhibition were calculated by fitting experimental values to standard mathematical model for dose response curve.

Sequence of cruzipain (P25779 123-467): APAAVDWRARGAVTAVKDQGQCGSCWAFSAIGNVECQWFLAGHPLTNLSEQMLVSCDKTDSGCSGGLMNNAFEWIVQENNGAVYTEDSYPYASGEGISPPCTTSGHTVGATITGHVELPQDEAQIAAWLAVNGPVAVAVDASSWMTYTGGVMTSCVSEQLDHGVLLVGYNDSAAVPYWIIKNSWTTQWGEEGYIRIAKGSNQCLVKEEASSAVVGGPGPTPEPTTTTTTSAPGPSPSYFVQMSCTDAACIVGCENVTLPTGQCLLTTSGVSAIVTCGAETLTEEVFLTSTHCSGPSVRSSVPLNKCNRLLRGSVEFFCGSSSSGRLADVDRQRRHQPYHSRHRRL

| Structure (SMILES) | IC50 [nM] |
| --- | --- |
| C[S+]([O-])c1ccc(-c2ccc([C@H](N[C@@H](CC(C)(C)F)C(=O)N[C@H](C#N)Cc3ccc(C#N)cc3F)C(F)(F)F)cc2)cc1 (stereo partly drawn) [Example 25, (S)-4-Fluoro-4-methyl-2-[(S)-2,2,2-trifluoro-1-(4′-methanesulfinyl-biphenyl-4-yl)-ethylamino]-pentanoic acid [(S)-1-cyano-2-(4-cyano-2-fluoro-phenyl)-ethyl]-amide] | 0.75 |
| Cn1cccc1-c1ccc([C@H](N[C@@H](CC(C)(C)F)C(=O)N[C@H](C#N)Cc2ccccc2)C(F)(F)F)cc1 [Example 35, (S)-4-Fluoro-4-methyl-2-{(S)-2,2,2-trifluoro-1-[4-(1-methyl-1H-pyrrol-2-yl)-phenyl]-ethylamino}-pentanoic acid ((S)-1-cyano-2-phenyl-ethyl)-amide] | 12.2 |
| CC(C)[C@H](N[C@@H](c1ccc(-c2ccc(C3(C(=O)O)CC3)cc2)cc1)C(F)(F)F)C(=O)N[C@H](C#N)Cc1ccc(C#N)cc1F [Example 58, 1-{4′-[(S)-1-((S)-1-{[(S)-Cyano-(4-cyano-2-fluoro-benzyl)-methyl]-carbamoyl}-2-methyl-propylamino)-2,2,2-trifluoro-ethyl]-biphenyl-4-yl}-cyclopropanecarboxylic acid] | 0.3 |
| CC(C)(F)C[C@H](N[C@@H](c1ccc(-c2ccc(C3(C(=O)NC4CC4)CC3)cc2)cc1)C(F)(F)F)C(=O)N[C@H](C#N)Cc1ccccc1 [Example 56, 1-[4′-((S)-1-{(S)-1-[((S)-Benzyl-cyano-methyl)-carbamoyl]-3-fluoro-3-methyl-butylamino}-2,2,2-trifluoro-ethyl)-biphenyl-4-yl]-cyclopropanecarboxylic acid cyclopropylamide] | 3.7 |
| CC(C)(F)C[C@H](N[C@@H](c1ccc(-c2ccc(C3(C#N)CC3)cc2)cc1)C(F)(F)F)C(=O)N[C@H](C#N)Cc1ccccc1 [Example 27, (S)-2-{(S)-1-[4′-(1-Cyano-cyclopropyl)-biphenyl-4-yl]-2,2,2-trifluoro-ethylamino}-4-fluoro-4-methyl-pentanoic acid ((S)-1-cyano-2-phenyl-ethyl)-amide] | 10.4 |
| CC(C)(F)C[C@H](N[C@@H](c1ccc(-c2ccc(-c3cc[n+]([O-])cc3)cc2)cc1)C(F)(F)F)C(=O)N[C@H](C#N)Cc1ccccc1 [Example 45, (S)-4-Fluoro-4-methyl-2-{(S)-2,2,2-trifluoro-1-[4′-(1-oxy-pyridin-4-yl)-biphenyl-4-yl]-ethylamino}-pentanoic acid ((S)-1-cyano-2-phenyl-ethyl)-amide] | 7.8 |
| CC(C)C[C@H](N[C@@H](c1ccc(Br)cc1)C(F)(F)F)C(=O)N[C@H](C#N)Cc1ccc(C#N)cc1 [Example 21, (S)-2-[(S)-1-(4-Bromo-phenyl)-2,2,2-trifluoro-ethylamino]-4-methyl-pentanoic acid [(S)-1-cyano-2-(4-cyano-phenyl)-ethyl]-amide] | 0.94 |
| CC(C)[C@H](N[C@@H](c1ccc(-c2ccc([C@@H](O)C(F)F)cc2)cc1)C(F)(F)F)C(=O)N[C@H](C#N)Cc1c(F)cc(Br)cc1F [Example 71, (S)-N-[(S)-(4-Bromo-2,6-difluoro-benzyl)-cyano-methyl]-2-{(S)-1-[4′-((R)-2,2-difluoro-1-hydroxy-ethyl)-biphenyl-4-yl]-2,2,2-trifluoro-ethylamino}-3-methyl-butyramide] | 2.1 |
| N#Cc1ccc(C[C@@H](C#N)NC(=O)[C@@H](N[C@@H](c2ccc(-c3ccc([C@@H](O)C(F)F)cc3)cc2)C(F)(F)F)C2CC2)c(F)c1 [Example 69, (S)-N-[(S)-Cyano-(4-cyano-2-fluoro-benzyl)-methyl]-2-cyclopropyl-2-{(S)-1-[4′-((R)-2,2-difluoro-1-hydroxy-ethyl)-biphenyl-4-yl]-2,2,2-trifluoro-ethylamino}-acetamide] | 4.3 |
| CC(C)[C@H](N[C@@H](c1ccc(-c2ccc(S(C)(=O)=O)cc2)cc1)C(F)(F)F)C(=O)N[C@H](C#N)Cc1c(F)cc(C#N)cc1F [Example 72, (S)-N-[(S)-Cyano-(4-cyano-2,6-difluoro-benzyl)-methyl]-3-methyl-2-[(S)-2,2,2-trifluoro-1-(4,- methanesulfonyl-biphenyl-4-yl)-ethylamino]-butyramide] | 0.5 |
| CC(C)(F)C[C@H](N[C@@H](c1ccc(-c2ccc(C3(C(=O)NCC(F)(F)F)CC3)cc2)cc1)C(F)(F)F)C(=O)N[C@H](C#N)Cc1ccccc1 [Example 54, 1-[4′-((S)-1-{(S)-1-[((S)-Benzyl-cyano-methyl)-carbamoyl]-3-fluoro-3-methyl-butylamino}-2,2,2-trifluoro-ethyl)-biphenyl-4-yl]-cyclopropanecarboxylic acid (2,2,2-trifluoro-ethyl)-amide] | 9.4 |
| CS(=O)(=O)c1ccc(-c2ccc([C@H](N[C@@H](CC(Cl)Cl)C(=O)N[C@H](C#N)Cc3ccc(C#N)cc3F)C(F)(F)F)cc2)cc1 [Example 1, (S)-4,4-Dichloro-N-[(S)-cyano-(4-cyano-2-fluoro-benzyl)-methyl]-2-[(S)-2,2,2-trifluoro-1-(4′-methanesulfonyl-biphenyl-4-yl)-ethylamino]-butyramide] | 0.14 |
| CC(C)[C@H](N[C@@H](c1ccc(-c2ccc([C@@H](O)C(F)F)cc2)cc1)C(F)(F)F)C(=O)N[C@H](C#N)Cc1c(F)cc(C#N)cc1F [Example 73, (S)-N-[(S)-Cyano-(4-cyano-2,6-difluoro-benzyl)-methyl]-2-{(S)-1-[4,- ((R)-2,2-difluoro-1-hydroxy-ethyl)-biphenyl-4-yl]-2,2,2-trifluoro-ethylamino}-3-methyl-butyramide] | 0.7 |
| CC(C)(F)C[C@H](N[C@@H](c1ccc(-c2ccc([C@@H](O)C(F)F)cc2)cc1)C(F)(F)F)C(=O)NC(C#N)Cc1ccc(C(F)(F)F)cc1F (stereo partly drawn) [Example 37, (S)-2-{(S)-1-[4′-((R)-2,2-Difluoro-1-hydroxy-ethyl)-biphenyl-4-yl]-2,2,2-trifluoro-ethylamino}-4-fluoro-4-methyl-pentanoic acid [cyano-(2-fluoro-4-trifluoromethyl-benzyl)-methyl]-amide] | 9.3 |
| CC(C)[C@H](N[C@@H](c1ccc(-c2ccc(S(C)(=O)=O)cc2)cc1)C(F)(F)F)C(=O)N[C@H](C#N)Cc1ccc(C(F)(F)F)cc1F [Example 62, (S)-N-[(S)-Cyano-(2-fluoro-4-trifluoromethyl-benzyl)-methyl]-3-methyl-2-[(S)-2,2,2-trifluoro-1-(4′-methanesulfonyl-biphenyl-4-yl)-ethylamino]-butyramide] | 0.4 |

The remaining lines, values ahead:

| IC50 [nM] | Structure (SMILES) |
| --- | --- |
| 12.4 | CC(C)(F)C[C@H](N[C@@H](c1ccc(-c2ccc(S(C)(=O)=O)cc2)cc1)C(F)(F)F)C(=O)N[C@H](C#N)Cc1ccc(C(F)(F)F)cc1 [Example 19, (S)-4-Fluoro-4-methyl-2-[(S)-2,2,2-trifluoro-1-(4′-methanesulfonyl-biphenyl-4-yl)-ethylamino]-pentanoic acid [(S)-1-cyano-2-(4-trifluoromethyl-phenyl)-ethyl]-amide] |
| 1.5 | CC(C)(F)C[C@H](N[C@@H](c1ccc(-c2ccc(S(C)(=O)=O)cc2)cc1)C(F)(F)F)C(=O)N[C@H](C#N)Cc1ccc(C(F)(F)F)cc1F [Example 46, (S)-4-Fluoro-4-methyl-2-[(S)-2,2,2-trifluoro-1-(4′-methanesulfonyl-biphenyl-4-yl)-ethylamino]-pentanoic acid [(S)-cyano-(2-fluoro-4-trifluoromethyl-benzyl)-methyl]-amide] |
| 4.4 | CCOC(=O)c1ccc(C[C@@H](C#N)NC(=O)[C@H](CC(C)(C)F)N[C@@H](c2ccc(-c3ccc(S(C)(=O)=O)cc3)cc2)C(F)(F)F)cc1 [Example 15, 4-((S)-2-Cyano-2-{(S)-4-fluoro-4-methyl-2-[(S)-2,2,2-trifluoro-1-(4′-methanesulfonyl-biphenyl-4-yl)-ethylamino]-pentanoylamino}-ethyl)-benzoic acid ethyl ester] |
| 15 | CC(C)(F)C[C@H](N[C@@H](c1ccc(-c2ccc(S(C)(=O)=O)cc2)cc1)C(F)(F)F)C(=O)N[C@H](C#N)Cc1cccc[n+]1[O-] [Example 65, (S)-4-Fluoro-4-methyl-2-[(S)-2,2,2-trifluoro-1-(4′-methanesulfonyl-biphenyl-4-yl)-ethylamino]-pentanoic acid [(S)-cyano-(1-oxy-pyridin-2-ylmethyl)-methyl]-amide] |
| 2.6 | CC(C)(F)C[C@H](N[C@@H](c1ccc(-c2ccc(S(C)(=O)=O)cc2)cc1)C(F)(F)F)C(=O)NC(C#N)Cc1ccc(F)cc1F (stereo partly drawn) [Example 34, (S)-4-Fluoro-4-methyl-2-[(S)-2,2,2-trifluoro-1-(4′-methanesulfonyl-biphenyl-4-yl)-ethylamino]-pentanoic acid [cyano-(2,4-difluoro-benzyl)-methyl]-amide] |
| 1.5 | CC(C)(F)C[C@H](N[C@@H](c1ccc(-c2ccc(S(C)(=O)=O)cc2)cc1)C(F)(F)F)C(=O)N[C@H](C#N)Cc1ccc(C#N)cc1 [Example 3, (S)-4-Fluoro-4-methyl-2-[(S)-2,2,2-trifluoro-1-(4′-methanesulfonyl-biphenyl-4-yl)-ethylamino]-pentanoic acid [(S)-1-cyano-2-(4-cyano-phenyl)-ethyl]-amide] |
| 0.9 | CC(C)(F)C[C@H](N[C@@H](c1ccc(-c2ccc(S(C)(=O)=O)cc2)cc1)C(F)(F)F)C(=O)N[C@H](C#N)Cc1ccccc1F [Example 17, (S)-Fluoro-4-methyl-2-[(S)-2,2,2-trifluoro-1-(4′-methanesulfonyl-biphenyl-4-yl)-ethylamino]-pentanoic acid [(S)-1-cyano-2-(2-fluoro-phenyl)-ethyl]-amide] |
| 6.1 | CC(C)(F)C[C@H](N[C@@H](c1ccc(-c2ccc(S(C)(=O)=O)cc2)cc1)C(F)(F)F)C(=O)N[C@H](C#N)Cc1ccc(F)cc1 [Example 16, (S)-4-Fluoro-4-methyl-2-[(S)-2,2,2-trifluoro-1-(4′-methanesulfonyl-biphenyl-4-yl)-ethylamino]-pentanoic acid [(S)-cyano-(4-fluoro-benzyl)-methyl]-amide] |
